Legend:
[1] = Acute toxicity (LD50, oral, mice); conditions: mouse, in vivo, dd-strain male mice 20 to 25 g, fasted overnight, suspended in 0.5% carboxymethyl cellulose, observed seven days
Description: The compounds to be tested were suspended in 0.5% carboxymethyl cellulose solution, and the suspension was orally administrated in variable amounts in response to the weights of dd-strain male mice having those ranging from 20 to 25 g which were forced to abstain from food overnight.

carrageenin edema = experiment: Anti-inflammatory activity (Carrageenin edema method); type: in vivo, rat (Wistar strain; conditions: 100 mg per kg oral, Wistar-strain male rats, 0.1 ml of 1% carrageenin s.c. left hind paw, edema weight after three hours, vs control group
Protocol: (2) Anti-inflammatory activity (Carrageenin edema method)
The compounds to be tested were suspended in 0.5% carboxymethyl cellulose solution, and the suspension was orally administrated in 100 mg per kg of Wistarstrain male rats having their weight range of 130 to 170 g which were forced to abstain from food overnight. These rats were then injected subcutaneously into their left hind paws each with 0.1 ml of a physiological NaCl solution having dissolved therein carrageen in 1% concentration. After three hours from said injection, the rats were killed, both hind legs were cut out and promptly weighed. There is assumed as weight of edema a value obtained by deducting a weight of untreated hind leg from that of the carrageenin injected hind leg of the rat. Inhibition ratio of a sample-administrated group to a control group has been sought. The control group was administrated only with 0.5% […] solution in the same manner.

[2] = tested on: acetic acid stretching symptom; experiment: Analgesic activity (Acetic acid stretching method); type: in vivo, mouse (ddy-strain); conditions: 100 mg per kg oral, ddy-strain mice, 0.2 ml of 0.7% acetic acid intraperitoneal
Protocol: (3) Analgesic activity (Acetic acid stretching method)
After the compounds to be tested were orally administrated in 100 mg per kg of ddy-strain mice having their weight range of 20 to 25 g, 0.2 ml of 0.7% acetic acid was intra-peritoneally administrated to each animal to observe stretching symptom thereby having found the inhibition ratio (%).

Row | Compound | LD50 at 168 h [1] [mg/kg] | Anti-inflammatory activity (Carrageenin edema method), inhibition ratio (carrageenin edema) [%] | Analgesic activity (Stretching method), inhibition ratio [2] [%]
1 | O=C(C=NO)c1cc(-c2ccccc2)no1 [(3-Phenylisoxazole-5-yl)glyoxal-2-oxim, (3-phenylisoxazole-5-yl)glyoxal-2-oxim] | 1690 | 56 | 75
2 | Cc1cc(C(=O)C=NO)on1 [(3-Methylisoxazole-5-yl)glyoxal-2-oxim, (3-methylisoxazole-5-yl)glyoxal-2-oxim] | 890 | 83 | 50

— patent US4243812A, “Processes for the preparation of glyoxal-2-oxims” (Taiho Pharmaceutical Company, priority 1978, dated 1981)
